Laboratory results reported in patent publication EP1974608A1, “Arylpyridazines as fungicides” (Bayer CropScience AG, priority 2007, dated 2008).
Like-named read-outs stand apart in the source and are kept apart here.

Key:
[1] = logP determination by reversed-phase HPLC (C18), EEC Directive 79/831 Annex V.A8; format: physicochemical
Venturia inaequalis = test: Venturia test (apple) / protective; format: in vivo; settings: 100ppm Wirkstoff; protective spray on young apple plants; evaluated 10 days after inoculation
From the text: Venturia - Test (Apfel) / protektiv
(§1) Zur Herstellung einer zweckmäßigen Wirkstoffzubereitung vermischt man 1 Gewichtsteil Wirkstoff mit den angegebenen Mengen Lösungsmittel und Emulgator und verdünnt das Konzentrat mit Wasser auf die gewünschte Konzentration.
Zur Prüfung auf protektive Wirksamkeit werden junge Pflanzen mit der Wirkstoff zubereitung in der angegebenen Aufwandmenge besprüht. Nach Antrocknen des Spritzbelages werden die Pflanzen mit einer wäßrigen Konidiensuspension des Apfelschorferregers Venturia inaequalis inokuliert und verbleiben dann 1 Tag bei ca. 20°C und 100% relativer Luftfeuchtigkeit in einer Inkubations-kabine.
Die Pflanzen werden dann im Gewächshaus bei ca, 21°C und einer relativen Luftfeuchtigkeit von ca. 90% aufgestellt.
10 Tage nach der Inokulation erfolgt die Auswertung. Dabei bedeutet 0% ein Wirkungsgrad, der demjenigen der Kontrolle entspricht, während ein Wirkungsgrad von 100% bedeutet, daß kein Befall beobachtet wird.

Alternaria solani = test: Alternaria test (tomato) / protective; format: in vivo; settings: 500ppm Wirkstoff; protective spray on young tomato plants; evaluated 7 days after inoculation
From the text: Alternaria-Test (Tomate) / protektiv
as §1
Zur Prüfung auf protektive Wirksamkeit bespritzt man junge Tomatenpflanzen mit der Wirkstoffzubereitung in der angegebenen Aufwandmenge. 1 Tag nach der Behandlung werden die Pflanzen mit einer Sporensuspension von Alternaria solani inokuliert und stehen dann 24h bei 100% rel. Feuchte und 20°C. Anschließend stehen die Pflanzen bei 96% rel. Luftfeuchtigkeit und einer Temperatur von 20°C.
7 Tage nach der Inokulation erfolgt die Auswertung. Dabei bedeutet 0 % ein Wirkungsgrad, der demjenigen der Kontrolle entspricht, während ein Wirkungsgrad von 100 % bedeutet, dass kein Befall beobachtet wird.

[2] = HPLC method of the footnote to Tabelle 1
[3] = reversed-phase c18 hplc, HPLC, 40°C, 0.1% aqueous formic acid / acetonitrile gradient 10% to 95%, read-out: log p

CC(Br)C(=O)c1ccc(Cl)cc1 (stereo not shown) [2-Brom-1-(4-chlorphenyl)propan-1-on]
chromatographic logP ([1]; reversed-phase c18 hplc, HPLC method of the footnote to Tabelle 1): 3.39

CC1(O)OC(=O)C(c2cccs2)=C1c1ccc(Cl)cc1 (stereo not shown) [4-(4-Chlorphenyl)-5-hydroxy-5-methyl-3-(2-thienyl)furan-2(5H)-on]
logP [1, 2]: 3.05

Cc1n[nH]c(=O)c(-c2cccn2C)c1-c1ccc(Cl)cc1 [5-(4-Chlorphanyl)-4-(1-Methyl-1H-pyrrol-2-yl)-6-methylpyridazin-3(2H)-on]
logP [1, 2]: 2.45

Cc1nc(-c2c(-c3ccc(Cl)cc3)c(C)n[nH]c2=O)cs1 [5-(4-Chlorphenyl)-4-(2-methyl-1,3-thiazol-4-yl)-6-methylpyridazin-3(2H)-on]
logP [1, 2]: 2.26

Cc1n[nH]c(=O)c(-c2cccs2)c1-c1ccc(Cl)cc1 [5-(4-Chlorphenyl)-4-(2-thienyl)-6-methylpyridazin-3(2H)-on]
logP [1, 2]: 2.71

Cc1n[nH]c(=O)c(-c2nc(Cl)c(Cl)s2)c1-c1ccc(Cl)cc1 [5-(4-Chlorphenyl)-4-(4,5-Dichlor-1,3-thiazol-2-yl)-6-methylpyridazin-3(2H)-on]
logP [1, 2]: 3.94

Cc1nc(-c2c(Cl)nnc(C)c2-c2ccc(Cl)cc2)cs1 [Beispiel 26]
chromatographic logP [1, 3]: 2.82

Cc1nnc(Cl)c(-c2cccn2C)c1-c1ccc(Cl)cc1 [Beispiel 27]
chromatographic logP [1, 3]: 3.24

Cc1nnc(Cl)c(-c2nc(Cl)c(Cl)s2)c1-c1ccc(Cl)cc1 [Beispiel 28]
chromatographic logP [1, 3]: 4.32

Cc1nnc(Cl)c(-c2cccs2)c1-c1ccc(Cl)cc1 [Beispiel 29, 3-Chlor-5-(4-chlorphenyl)-4-(2-thienyl)-6-methylpyridazin]
chromatographic logP ([1]; c18 reversed-phase hplc, HPLC method of the footnote to Tabelle 1): 3.41
chromatographic logP [1, 3]: 3.41
Wirkungsgrad (Venturia inaequalis): ≥ 70%
Wirkungsgrad (Alternaria solani): ≥ 70%
